Experimental data reported in ChEMBL document CHEMBL2069245 (Bioorg Med Chem Lett, 2012).
Converted amounts (≈) assume the structure as drawn.

Assays:
[1] = target: T1, Neuropeptide Y receptor type 5 (Mus musculus, UniProt O70342); assay: Displacement of [125I]PYY from mouse NPY Y5 receptor
T1 sequence (O70342 whole entry): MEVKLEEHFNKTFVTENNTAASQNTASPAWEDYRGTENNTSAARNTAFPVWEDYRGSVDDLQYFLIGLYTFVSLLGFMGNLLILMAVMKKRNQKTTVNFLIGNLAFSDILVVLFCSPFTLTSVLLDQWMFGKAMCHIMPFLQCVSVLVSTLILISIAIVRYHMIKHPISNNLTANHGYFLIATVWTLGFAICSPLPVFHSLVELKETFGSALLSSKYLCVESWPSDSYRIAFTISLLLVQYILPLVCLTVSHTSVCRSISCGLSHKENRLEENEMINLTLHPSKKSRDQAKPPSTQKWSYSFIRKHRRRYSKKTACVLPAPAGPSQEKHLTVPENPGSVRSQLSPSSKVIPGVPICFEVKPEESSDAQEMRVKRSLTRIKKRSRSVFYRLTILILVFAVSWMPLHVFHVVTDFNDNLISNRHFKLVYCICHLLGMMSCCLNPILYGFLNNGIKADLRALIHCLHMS

Cytochrome P450 1A2 = target: T2, Cytochrome P450 1A2 (Homo sapiens, UniProt P05177)
T2 sequence (P05177 whole entry): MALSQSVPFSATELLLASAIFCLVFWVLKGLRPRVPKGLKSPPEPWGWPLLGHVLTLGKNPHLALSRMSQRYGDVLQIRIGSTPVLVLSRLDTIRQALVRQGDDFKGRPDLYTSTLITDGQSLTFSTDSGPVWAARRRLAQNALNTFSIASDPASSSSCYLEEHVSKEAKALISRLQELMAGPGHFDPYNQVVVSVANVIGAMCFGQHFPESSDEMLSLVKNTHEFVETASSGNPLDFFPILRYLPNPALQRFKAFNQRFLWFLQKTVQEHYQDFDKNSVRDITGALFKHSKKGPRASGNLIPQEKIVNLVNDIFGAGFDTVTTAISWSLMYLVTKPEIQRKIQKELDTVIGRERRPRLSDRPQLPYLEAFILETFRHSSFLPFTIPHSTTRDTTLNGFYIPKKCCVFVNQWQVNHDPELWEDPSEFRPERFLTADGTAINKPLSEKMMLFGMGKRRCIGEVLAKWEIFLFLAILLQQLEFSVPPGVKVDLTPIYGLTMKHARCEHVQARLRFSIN

Cytochrome P450 2D6 = Cytochrome P450 2D6 (Homo sapiens, UniProt P10635)
Sequence of Cytochrome P450 2D6 (P10635 whole entry): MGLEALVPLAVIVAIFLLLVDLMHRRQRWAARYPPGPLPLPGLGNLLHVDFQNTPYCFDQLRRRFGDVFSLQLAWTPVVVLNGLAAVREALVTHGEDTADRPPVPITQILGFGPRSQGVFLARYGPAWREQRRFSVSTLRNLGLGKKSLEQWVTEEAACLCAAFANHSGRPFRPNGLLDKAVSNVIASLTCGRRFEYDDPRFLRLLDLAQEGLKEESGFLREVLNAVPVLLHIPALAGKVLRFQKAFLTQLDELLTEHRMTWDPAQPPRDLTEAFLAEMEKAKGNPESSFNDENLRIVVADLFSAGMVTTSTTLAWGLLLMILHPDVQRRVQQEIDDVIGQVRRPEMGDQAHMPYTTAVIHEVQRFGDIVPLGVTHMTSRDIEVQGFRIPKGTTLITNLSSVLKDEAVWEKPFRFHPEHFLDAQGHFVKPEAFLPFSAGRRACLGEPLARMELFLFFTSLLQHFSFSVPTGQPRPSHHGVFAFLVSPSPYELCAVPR

Cytochrome P450 3A4 = Cytochrome P450 3A4 (Homo sapiens, UniProt P08684)
Sequence of Cytochrome P450 3A4 (P08684 whole entry): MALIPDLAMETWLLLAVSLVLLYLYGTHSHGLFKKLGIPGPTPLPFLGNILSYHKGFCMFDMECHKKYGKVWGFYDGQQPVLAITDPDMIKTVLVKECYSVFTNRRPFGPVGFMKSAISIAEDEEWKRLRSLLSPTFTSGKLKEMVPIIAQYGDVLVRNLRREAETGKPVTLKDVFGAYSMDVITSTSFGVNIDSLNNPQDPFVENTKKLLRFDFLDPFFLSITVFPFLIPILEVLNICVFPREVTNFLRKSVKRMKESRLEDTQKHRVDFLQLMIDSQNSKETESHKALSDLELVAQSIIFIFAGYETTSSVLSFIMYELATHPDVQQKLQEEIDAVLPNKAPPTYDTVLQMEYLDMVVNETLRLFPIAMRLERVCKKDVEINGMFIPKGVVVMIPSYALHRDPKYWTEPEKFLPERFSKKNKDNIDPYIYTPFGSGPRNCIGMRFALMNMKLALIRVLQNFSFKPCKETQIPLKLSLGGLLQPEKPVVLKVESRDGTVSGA

physchem = details: 1% DMSO, pH 6.8
in vitro [2] = details: human, liver microsomes
in vitro [3] = details: rat, liver microsomes
Cytochrome P450 2C19 = Cytochrome P450 2C19 (Homo sapiens, UniProt P33261)
Sequence of Cytochrome P450 2C19 (P33261 whole entry): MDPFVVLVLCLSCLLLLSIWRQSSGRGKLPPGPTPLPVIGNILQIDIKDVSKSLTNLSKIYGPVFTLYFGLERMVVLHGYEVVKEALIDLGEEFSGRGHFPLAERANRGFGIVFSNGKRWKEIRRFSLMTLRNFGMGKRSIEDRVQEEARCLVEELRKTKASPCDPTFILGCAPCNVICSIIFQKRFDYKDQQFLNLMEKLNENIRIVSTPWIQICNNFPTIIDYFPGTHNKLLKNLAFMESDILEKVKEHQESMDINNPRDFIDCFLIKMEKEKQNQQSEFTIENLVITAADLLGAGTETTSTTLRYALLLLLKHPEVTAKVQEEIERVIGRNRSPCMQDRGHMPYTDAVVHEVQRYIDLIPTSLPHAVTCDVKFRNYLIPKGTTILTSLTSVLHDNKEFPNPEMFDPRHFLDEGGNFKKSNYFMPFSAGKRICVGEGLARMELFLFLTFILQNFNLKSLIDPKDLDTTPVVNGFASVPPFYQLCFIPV

Cytochrome P450 2C9 = Cytochrome P450 2C9 (Homo sapiens, UniProt P11712)
Sequence of Cytochrome P450 2C9 (P11712 whole entry): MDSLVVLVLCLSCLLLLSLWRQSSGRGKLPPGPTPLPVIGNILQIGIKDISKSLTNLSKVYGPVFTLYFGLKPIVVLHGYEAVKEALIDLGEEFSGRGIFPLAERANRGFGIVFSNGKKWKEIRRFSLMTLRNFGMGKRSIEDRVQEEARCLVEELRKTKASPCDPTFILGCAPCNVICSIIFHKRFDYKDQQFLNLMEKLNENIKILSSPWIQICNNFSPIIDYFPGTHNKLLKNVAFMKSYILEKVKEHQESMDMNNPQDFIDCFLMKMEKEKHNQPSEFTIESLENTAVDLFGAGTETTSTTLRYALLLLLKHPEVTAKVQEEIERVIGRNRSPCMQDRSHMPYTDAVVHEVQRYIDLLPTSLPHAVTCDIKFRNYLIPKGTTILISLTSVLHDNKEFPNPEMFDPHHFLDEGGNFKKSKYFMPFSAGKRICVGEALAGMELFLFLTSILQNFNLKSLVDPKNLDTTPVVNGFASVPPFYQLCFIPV

| Compound | IC50 [1] | IC50 (Cytochrome P450 1A2) | IC50 (Cytochrome P450 2D6) | IC50 (Cytochrome P450 3A4) | solubility kinetic (physchem) | remaining at 0.5 h (in vitro [2]) | remaining at 0.5 h (in vitro [3]) | IC50 (Cytochrome P450 2C19) | IC50 (Cytochrome P450 2C9) |
| --- | --- | --- | --- | --- | --- | --- | --- | --- | --- |
| CCS(=O)(=O)c1ccc2[nH]c(-c3ccnc(-c4ccccc4)c3)nc2c1 | 0.00031 µM | 3.4 µM | > 20 µM | 8.7 µM | 20.3 µM (≈ 7.38 µg/mL) |  |  |  |  |
| CCS(=O)(=O)c1ccc2nc(-c3cc(-c4ccccc4)ccc3C)[nH]c2c1 | 0.383 µM | 0.4 µM | 14 µM |  | 0.5 µM (≈ 0.188 µg/mL) |  |  |  |  |
| CCCS(=O)(=O)c1ccc2nc(-c3cccc(C(F)(F)F)c3)[nH]c2c1 |  | 0.4 µM | > 20 µM | 20 µM |  |  |  |  |  |
| CCS(=O)(=O)c1ccc2[nH]c(-c3cccc(-c4ccccc4)c3Cl)nc2c1 | 0.0405 µM | 3 µM | 18 µM | 3.8 µM | 1.5 µM (≈ 0.595 µg/mL) |  |  |  |  |
| CCS(=O)(=O)c1ccc2nc(-c3cccc(-c4ccccc4)c3F)[nH]c2c1 | 0.0027 µM | 1.1 µM | > 20 µM | 6.6 µM | 0.6 µM (≈ 0.228 µg/mL) |  |  |  |  |
| CCS(=O)(=O)c1ccc2nc(-c3cc(-c4ccccc4)ccc3Cl)[nH]c2c1 | 0.0311 µM | 0.4 µM | 15 µM | 5 µM | 0.4 µM (≈ 0.159 µg/mL) |  |  |  |  |
| CCCS(=O)(=O)c1ccc2nc(-c3ccccc3)[nH]c2c1 | 4.66 µM | 2.9 µM | > 20 µM | > 20 µM | > 50 µM |  |  |  |  |
| CCS(=O)(=O)c1ccc2[nH]c(-c3cccc(-c4ccccc4)n3)nc2c1 | 0.0389 µM |  |  |  |  |  |  |  |  |
| CCCS(=O)(=O)c1ccc2[nH]c(-c3ccc(=O)n(-c4ccccc4)c3)nc2c1 |  | > 20 µM | > 20 µM | > 20 µM |  | 88.5% | 78.6% | > 20 µM | > 20 µM |
| O=c1ccc(-c2nc3ccc(S(=O)(=O)C(F)(F)F)cc3[nH]2)cn1-c1ccccc1 | 0.0025 µM |  |  |  |  |  |  |  |  |
| CCS(=O)(=O)c1ccc2[nH]c(-c3cc(-c4ccccc4)ccc3F)nc2c1 | 0.00054 µM |  |  |  |  |  |  |  |  |
| CCS(=O)(=O)c1ccc2nc(-c3ccc(C)c(-c4ccccc4)c3)[nH]c2c1 |  | 3.2 µM | > 20 µM | 5.7 µM |  |  |  |  |  |
| CCCS(=O)(=O)c1ccc2[nH]c(-c3cccn(-c4ccccc4)c3=O)nc2c1 |  | > 20 µM | > 20 µM | > 20 µM |  |  |  | > 20 µM | > 20 µM |
| CCS(=O)(=O)c1ccc2[nH]c(-c3ccc(Cl)c(-c4ccccc4)c3)nc2c1 | 0.00016 µM | 8.5 µM | 18 µM | 2.6 µM |  |  |  |  |  |

The remaining lines, values ahead:

| IC50 [1] | IC50 (Cytochrome P450 1A2) | IC50 (Cytochrome P450 2D6) | IC50 (Cytochrome P450 3A4) | solubility kinetic (physchem) | remaining at 0.5 h (in vitro [2]) | remaining at 0.5 h (in vitro [3]) | IC50 (Cytochrome P450 2C19) | IC50 (Cytochrome P450 2C9) | Compound |
| --- | --- | --- | --- | --- | --- | --- | --- | --- | --- |
| 0.0075 µM | > 20 µM | > 20 µM | > 20 µM | 9.4 µM (≈ 3.83 µg/mL) | 94.2% | > 99.9% |  |  | CC(C)(C)S(=O)(=O)c1ccc2nc(-c3ccc(=O)n(-c4ccccc4)c3)[nH]c2c1 |
| 0.00029 µM | > 20 µM | > 20 µM | > 20 µM | 7.7 µM (≈ 3.34 µg/mL) | 94.7% | 93.6% |  |  | O=c1ccc(-c2nc3cc(S(=O)(=O)CC(F)(F)F)ccc3[nH]2)cn1-c1ccccc1 |
| 4.06 µM | > 20 µM | 15 µM | 11 µM | 23.6 µM (≈ 8.88 µg/mL) |  |  | > 20 µM | 4.5 µM | CCCS(=O)(=O)c1ccc2[nH]c(-c3ccccc3-c3ccccc3)nc2c1 |
| 0.579 µM | > 20 µM | > 20 µM | > 20 µM | 2 µM (≈ 0.787 µg/mL) |  |  | > 20 µM | > 20 µM | CCCS(=O)(=O)c1ccc2nc(-c3cn(-c4ccccc4)ccc3=O)[nH]c2c1 |
|  | > 20 µM | 15 µM | 2.9 µM |  |  |  |  |  | CCCS(=O)(=O)c1ccc2nc(-c3ccc(-c4ccccc4)cc3)[nH]c2c1 |
|  | 6.3 µM | > 20 µM | 7.8 µM |  |  |  |  |  | CCS(=O)(=O)c1ccc2[nH]c(-c3cncc(-c4ccccc4)c3)nc2c1 |
| 0.00043 µM | 2.7 µM | > 20 µM | 6 µM | 0.5 µM (≈ 0.188 µg/mL) | 68.6% | 57.1% |  |  | CCCS(=O)(=O)c1ccc2[nH]c(-c3cccc(-c4ccccc4)c3)nc2c1 |
| 0.00046 µM |  |  |  |  |  |  |  |  | CCS(=O)(=O)c1ccc2[nH]c(-c3cccc(-c4ccccc4)c3)nc2c1 |
| 0.0218 µM | 7.8 µM | > 20 µM | 5.2 µM | 3.2 µM (≈ 1.2 µg/mL) |  |  |  |  | CCS(=O)(=O)c1ccc2nc(-c3cccc(-c4ccccc4)c3C)[nH]c2c1 |
| 0.00016 µM | 3.4 µM | 16 µM | 5.6 µM | 0.2 µM (≈ 0.0761 µg/mL) |  |  |  |  | CCS(=O)(=O)c1ccc2nc(-c3ccc(F)c(-c4ccccc4)c3)[nH]c2c1 |
| 0.00055 µM |  |  |  |  |  |  |  |  | CCS(=O)(=O)c1ccc2nc(-c3cc(-c4ccccc4)ccn3)[nH]c2c1 |
| 0.0019 µM |  |  |  |  |  |  |  |  | CCCS(=O)(=O)c1ccc2nc(-c3cccc(OC(F)(F)F)c3)[nH]c2c1 |
